Patent publication US20110217301A1, “METHODS FOR TREATING OR SCREENING FOR COMPOUNDS FOR THE TREATMENT OF SEPSIS” (priority 2009, published 2011)
Where a SMILES comes first, the peptide text is derived from it. Bridges are numbered along the chain shown (N, C = ends). [ ]: non-standard residue; d: D form. hArg = N=C(N)NCCCC[C@H](N)C(=O)O; Mpa = O=C(O)CCS

Assays:
[1] = adults admitted to the ICU already receiving aspirin, clopidogrel or a combination; cited from earlier work
[2] = target: plasma membrane glycoprotein GPIIb/IIIa (mouse) (UniProt Q9QUM0); test: cell-based or functional assay
granzyme B = test: Flow cytometry of intracellular granzyme B in CD61+ platelets; type: cell-based, mouse; settings: additional platelet activation with TNFα; data not shown
Source text: To determine if granzyme B mRNA up-regulation translates to increased granzyme B protein expression, additional citrated whole blood was collected from septic and control mice. It was fixed with 1% paraformaldehyde, permeabilized, and intracellularly stained with anti-granzyme B (clone 16G6; eBioscience, San Diego, Calif., USA) using appropriate isotype and negative (unlabeled) controls. Flow cytometry data were generated on a FACSCalibur™ System (BD Biosciences, San Jose, Calif., USA), gating on CD61^+ (clone 2C9.G2; BD) platelets, and analyzed using FlowJo 7.2 (Tree Star, Inc., Ashland, Oreg., USA).

CD4+ splenocytes = test: Co-incubation of CD4+ splenocytes with platelets with or without recombinant TNFα pre-treatment; apoptosis by TiterTACS; type: cell-based, mouse
Description: CD4^+ splenocytes from healthy control mice were co-incubated with platelets isolated from control or septic mice for 90 minutes at 37° C. and 5% CO2 with or without platelet pre-treatment with 10 ng/mL of recombinant TNFα (Sigma-Aldrich) for 90 minutes. Splenocyte apoptosis was evaluated by TiterTACS™ (Trevigen, Gaithersburg, Md., USA), a quantitative colorimetric assay for in situ detection of DNA fragmentation. All samples were run in triplicate according to the manufacturer's protocol with data normalized to negative and nuclease-induced positive controls.
Our finding of granzyme B in platelets from septic mice and humans caused us to hypothesize that platelets could be lymphotoxic in this scenario. To study this question, platelets from mice 18 hours status post CLP were co-incubated with CD4^+ splenocytes isolated from healthy control mice. Platelets from septic wild-type (i.e. C57BL6) mice induced marked splenocyte apoptosis compared to platelets from sham wild-type mice (rate of apoptosis=26.0±3.4 versus 3.9±3.4%; p=0.007). (FIG. 4) This co-incubation experiment was repeated with platelets from septic granzyme B null (−/−) mice (i.e. B6.129S2-Gzmb^tmlLey). In this case, there was a complete lack of induced splenocyte apoptosis by septic platelets. […] (FIG. 4)

splenocytes = test: Ex vivo septic platelet-splenocyte co-incubation with anti-aggregatory platelet pretreatment; apoptosis by flow cytometry (TUNEL, pan-caspase FLICA); type: cell-based, mouse
Description: Non-septic wild type spleens were firmly pressed between two glass slides to express splenocytes, which were isolated by centrifugation through Ficoll-Paque™ Plus (GE Healthcare Bio-Sciences Corporation, Piscataway, N.J.). Splenocyte concentrations were measured and standardized using a manual hemocytometer and co-incubated ex vivo with platelets (from septic or healthy control mice) for 90 minutes at 37° C. and 5% CO2 in complete Dulbecco's Modified Eagle Medium (DMEM) (Invitrogen/GIBCO, Carlsbad, Calif.). For some experiments, a 0.4 μm semi-permeable membrane (Corning Inc., Corning, N.Y.) was used to physically separate platelets from splenocytes.
Splenocyte apoptosis in each experimental condition was quantified in cell suspensions by flow cytometry on a FACSCalibur™ (Becton, Dickinson and Company, San Jose, Calif.) and in tissue sections by immunohistochemistry on a Nikon Eclipse E 800 Microscope (Nikon Instruments Inc., Melville, N.Y.) with a Spot RT Slider Camera (Diagnostic Instruments Inc., Sterling Heights, Mich.).
Splenocyte suspension apoptosis was identified using FlowTACS™ (Trevigen, Gaithersburg, Md.), a TUNEL-based assay for detection of DNA fragmentation. Positive controls were generated with staurosporine (Sigma Life Sciences, St Louis, Mo.). CD4+ fractions were identified by fluorophore-labeled antibody staining (clone L3T4; eBiosciences, San Diego, Calif.). We used a Sulforhodamine FLICA-Apoptosis Detection Kit Pan-Caspase Assay (Immunochemistry Technologies, Bloomington, Minn.) to measure activated caspases in apoptotic cells. Immunohistochemistry was performed on frozen heart, lung, kidney, spleen, and liver sections (4-7 μm) stained with the TUNEL-based TACK® 2 TdT In Situ Apoptosis Detection Kit (Trevigen, Gaithersburg, Md., USA) according to the manufacturer's instructions.

other integrins = settings: binds specifically to GPIIb/IIIa; cited from earlier work
[3] = eptifibatide-exposed (4 μg/mL, 15 minutes) septic wild type platelets with healthy splenocytes vs non-exposed septic platelets, mean±SEM
[4] = platelets pre-treated, compared with untreated septic platelets

UniProt Q9QUM0, sequence (Q9QUM0 32-1033, chain 1 of 2): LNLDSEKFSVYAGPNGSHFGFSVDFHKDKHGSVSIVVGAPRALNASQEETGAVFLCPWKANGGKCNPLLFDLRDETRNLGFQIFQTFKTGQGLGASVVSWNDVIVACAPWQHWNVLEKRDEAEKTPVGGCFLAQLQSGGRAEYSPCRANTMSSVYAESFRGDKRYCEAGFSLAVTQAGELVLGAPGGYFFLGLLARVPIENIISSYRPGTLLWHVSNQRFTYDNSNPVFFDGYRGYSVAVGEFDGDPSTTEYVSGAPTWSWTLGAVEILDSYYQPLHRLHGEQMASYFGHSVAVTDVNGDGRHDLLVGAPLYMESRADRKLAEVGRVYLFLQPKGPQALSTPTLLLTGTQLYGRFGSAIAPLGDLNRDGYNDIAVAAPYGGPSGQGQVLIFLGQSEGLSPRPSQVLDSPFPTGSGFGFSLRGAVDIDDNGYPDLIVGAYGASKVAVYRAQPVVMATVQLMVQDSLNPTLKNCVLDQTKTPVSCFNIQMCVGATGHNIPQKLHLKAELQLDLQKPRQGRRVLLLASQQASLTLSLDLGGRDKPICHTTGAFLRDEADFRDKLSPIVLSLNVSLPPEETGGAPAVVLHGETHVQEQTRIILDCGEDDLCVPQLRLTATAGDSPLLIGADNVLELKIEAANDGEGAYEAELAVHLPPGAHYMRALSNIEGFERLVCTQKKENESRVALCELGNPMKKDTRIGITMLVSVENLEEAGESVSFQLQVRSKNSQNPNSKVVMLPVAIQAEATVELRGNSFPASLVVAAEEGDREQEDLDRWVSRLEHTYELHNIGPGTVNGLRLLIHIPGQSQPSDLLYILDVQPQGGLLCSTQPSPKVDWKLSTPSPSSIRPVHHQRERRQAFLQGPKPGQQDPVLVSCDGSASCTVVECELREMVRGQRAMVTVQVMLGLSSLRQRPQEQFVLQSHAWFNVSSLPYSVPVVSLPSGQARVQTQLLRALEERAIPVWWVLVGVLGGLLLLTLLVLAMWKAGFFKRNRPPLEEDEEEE
UniProt Q9QUM0, sequence (O54890 26-787, chain 2 of 2, further chain): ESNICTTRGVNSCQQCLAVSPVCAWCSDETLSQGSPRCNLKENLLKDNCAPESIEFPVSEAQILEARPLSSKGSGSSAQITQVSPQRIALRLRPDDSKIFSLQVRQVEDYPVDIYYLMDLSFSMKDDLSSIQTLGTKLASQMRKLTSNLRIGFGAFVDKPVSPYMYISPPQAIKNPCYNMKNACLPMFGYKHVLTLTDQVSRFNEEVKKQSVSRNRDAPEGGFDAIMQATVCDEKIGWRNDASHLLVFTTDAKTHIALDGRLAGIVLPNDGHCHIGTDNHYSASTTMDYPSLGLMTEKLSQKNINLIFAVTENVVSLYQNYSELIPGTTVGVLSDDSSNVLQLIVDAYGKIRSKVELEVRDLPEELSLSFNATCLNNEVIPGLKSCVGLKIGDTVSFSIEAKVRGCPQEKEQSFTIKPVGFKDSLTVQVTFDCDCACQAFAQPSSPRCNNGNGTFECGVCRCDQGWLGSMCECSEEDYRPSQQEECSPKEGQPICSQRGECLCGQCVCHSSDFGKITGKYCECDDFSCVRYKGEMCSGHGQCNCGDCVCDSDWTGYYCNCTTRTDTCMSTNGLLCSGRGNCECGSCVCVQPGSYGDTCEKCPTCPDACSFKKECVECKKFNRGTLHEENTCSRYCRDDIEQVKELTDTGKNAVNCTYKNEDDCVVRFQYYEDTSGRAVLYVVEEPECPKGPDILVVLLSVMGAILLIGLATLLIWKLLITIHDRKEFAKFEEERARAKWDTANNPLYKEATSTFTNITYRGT

In the case of COC(=O)[C@H](c1ccccc1Cl)N1CCc2sccc2C1 [clopidogrel], the “levels of MODS” value [1] is listed as “decreased levels of MODS” and the mortality [1] is listed as “decreased mortality”.

For CC(=O)Oc1ccccc1C(=O)O [aspirin], the “levels of MODS” value [1] is listed as “decreased levels of MODS” and the mortality [1] is listed as “decreased mortality”.

Molecule eptifibatide (peptide) has a reduction of septic platelet-induced apoptosis in the CD4+ splenocyte fraction, TUNEL+ and pan-caspase+ by flow cytometry [2] of 85 % reduction and a reduction of septic platelet-induced splenocyte apoptosis (overall), TUNEL+ and pan-caspase+ by flow cytometry [2] of 66.5 % reduction.

For TNFα, the “intracellular granzyme B in platelets, result in words” value (granzyme B) was “did not alter”, the “lymphotoxic capacity of platelets, result in words” value (CD4+ splenocytes; further platelet activation with recombinant TNFα) was “did not alter” and the “rate of apoptosis (lymphotoxicity) of CD4+ splenocytes” value (CD4+ splenocytes; wild-type platelets further activated by TNFα (10 ng/mL, 90 minutes), p=0.88 vs non-activated control platelets) was 4.5±1.3%.

In the case of N=C(N)NCCCC[C@@H]1NC(=O)CCSSC[C@@H](C(N)=O)NC(=O)[C@@H]2CCCN2C(=O)[C@H](Cc2c[nH]c3ccccc23)NC(=O)[C@H](CC(=O)O)NC(=O)CNC1=O [eptifibatide] ([Mpa][hArg]GDWPC-NH2; disulfide 1-7), the “reduction of splenocyte apoptosis in the CD4+ fraction” value (splenocytes; [3]) is reported as 85±20.7 % reduction, the “reduction of splenocyte apoptosis overall” value (splenocytes; [3]) is reported as 66.5±10.6 % reduction and the “septic platelet-induced CD4+ splenocyte apoptosis (TUNEL+ and pan-Caspase+), result in words” value (splenocytes; [4]) is reported as “significant reduction”. The “septic platelet-induced splenocyte apoptosis overall (TUNEL+ and pan-Caspase+), result in words” value (splenocytes; [4]) was “significant reduction” and the “affinity for other integrins” value (other integrins) was “low affinity”.
